Laboratory results: PubChem BioAssay (NCI)
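Growth conditions: 96-well plates. Treatment: test compound, 48 hours, 5 concentrations. Analysis: linear interpolation between bracketing concentrations; unreached endpoints set to highest concentration. TGI: total growth inhibition.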

Tested on: COLO 205 colon
Test: NCI tumour cell line growth inhibition, 48 h

CCCCN(CC)C(=O)C1=C(C)NC(C)=C(C(=O)N(CC)CCCC)C1 and CCOC(=O)c1csc(NC(=O)CN2CCN(c3ccccc3)CC2)n1 cannot be ordered by TGI: > 100 µM for the first, > 100 µM for the second.

[N-]=[N+]=CC(=O)OC1CCOCC1 and CS(=O)(=O)OCOS(C)(=O)=O cannot be ordered by TGI: > 100 µM for the first, > 100 µM for the second.

Tested on: SK-OV-3 ovarian
Test: NCI tumour cell line growth inhibition, 48 h

CCCCN(CC)C(=O)C1=C(C)NC(C)=C(C(=O)N(CC)CCCC)C1 and CCOC(=O)c1csc(NC(=O)CN2CCN(c3ccccc3)CC2)n1 cannot be ordered by TGI: > 100 µM for the first, > 100 µM for the second.

[N-]=[N+]=CC(=O)OC1CCOCC1 and CS(=O)(=O)OCOS(C)(=O)=O cannot be ordered by TGI: > 100 µM for the first, > 100 µM for the second.

Tested on: SNB-75 CNS
Test: NCI tumour cell line growth inhibition, 48 h

Point of comparison: COc1cc2c(cc1OCCCCCN1C(=O)c3cccc4cccc(c34)C1=O)N=C[C@@H]1CCCN1C2=O, TGI 1.24 µM. Against it:
- CCCCN(CC)C(=O)C1=C(C)NC(C)=C(C(=O)N(CC)CCCC)C1 — higher, > 100 µM
- CCOC(=O)c1csc(NC(=O)CN2CCN(c3ccccc3)CC2)n1 — higher, > 100 µM

Tested on: SF-539 CNS
Test: NCI tumour cell line growth inhibition, 48 h

Point of comparison: COc1cc2c(cc1OCCCCCN1C(=O)c3cccc4cccc(c34)C1=O)N=C[C@@H]1CCCN1C2=O, TGI 2.55 µM. Against it:
- CCCCN(CC)C(=O)C1=C(C)NC(C)=C(C(=O)N(CC)CCCC)C1 — higher, > 100 µM
- CS(=O)(=O)OCOS(C)(=O)=O — higher, > 100 µM

Tested on: TK-10 renal
Test: NCI tumour cell line growth inhibition, 48 h

Point of comparison: COc1cc2c(cc1OCCCCCN1C(=O)c3cccc4cccc(c34)C1=O)N=C[C@@H]1CCCN1C2=O, TGI 2.78 µM. Against it:
- CCCCN(CC)C(=O)C1=C(C)NC(C)=C(C(=O)N(CC)CCCC)C1 — higher, > 100 µM
- CCOC(=O)c1csc(NC(=O)CN2CCN(c3ccccc3)CC2)n1 — higher, > 100 µM
- [N-]=[N+]=CC(=O)OC1CCOCC1 — higher, > 100 µM
- CS(=O)(=O)OCOS(C)(=O)=O — higher, > 100 µM

Tested on: SF-268 CNS
Test: NCI tumour cell line growth inhibition, 48 h

CCCCN(CC)C(=O)C1=C(C)NC(C)=C(C(=O)N(CC)CCCC)C1 and COc1cc2c(cc1OCCCCCN1C(=O)c3cccc4cccc(c34)C1=O)N=C[C@@H]1CCCN1C2=O cannot be ordered by TGI: > 100 µM for the first, > 100 µM for the second.

For [N-]=[N+]=CC(=O)OC1CCOCC1, the TGI was > 100 µM.

Tested on: UO-31 renal
Test: NCI tumour cell line growth inhibition, 48 h

Point of comparison: COc1cc2c(cc1OCCCCCN1C(=O)c3cccc4cccc(c34)C1=O)N=C[C@@H]1CCCN1C2=O, TGI 0.454 µM. Against it:
- CCCCN(CC)C(=O)C1=C(C)NC(C)=C(C(=O)N(CC)CCCC)C1 — higher, > 100 µM
- CCOC(=O)c1csc(NC(=O)CN2CCN(c3ccccc3)CC2)n1 — higher, > 100 µM
- [N-]=[N+]=CC(=O)OC1CCOCC1 — higher, > 100 µM
- CS(=O)(=O)OCOS(C)(=O)=O — higher, > 100 µM

Tested on: HCT-116 colon
Test: NCI tumour cell line growth inhibition, 48 h

Point of comparison: COc1cc2c(cc1OCCCCCN1C(=O)c3cccc4cccc(c34)C1=O)N=C[C@@H]1CCCN1C2=O, TGI 3.13 µM. Against it:
- CCCCN(CC)C(=O)C1=C(C)NC(C)=C(C(=O)N(CC)CCCC)C1 — higher, > 100 µM
- [N-]=[N+]=CC(=O)OC1CCOCC1 — higher, > 100 µM
- CS(=O)(=O)OCOS(C)(=O)=O — higher, > 100 µM

Tested on: HT29 colon
Test: NCI tumour cell line growth inhibition, 48 h

Point of comparison: COc1cc2c(cc1OCCCCCN1C(=O)c3cccc4cccc(c34)C1=O)N=C[C@@H]1CCCN1C2=O, TGI 1.5 µM. Against it:
- CCCCN(CC)C(=O)C1=C(C)NC(C)=C(C(=O)N(CC)CCCC)C1 — higher, > 100 µM
- CCOC(=O)c1csc(NC(=O)CN2CCN(c3ccccc3)CC2)n1 — higher, > 100 µM
- [N-]=[N+]=CC(=O)OC1CCOCC1 — higher, > 100 µM
- CS(=O)(=O)OCOS(C)(=O)=O — higher, > 100 µM

Tested on: CCRF-CEM leukemia
Test: NCI tumour cell line growth inhibition, 48 h

Point of comparison: COc1cc2c(cc1OCCCCCN1C(=O)c3cccc4cccc(c34)C1=O)N=C[C@@H]1CCCN1C2=O, TGI 0.0677 µM. Against it:
- CCOC(=O)c1csc(NC(=O)CN2CCN(c3ccccc3)CC2)n1 — higher, > 100 µM
- [N-]=[N+]=CC(=O)OC1CCOCC1 — higher, > 100 µM
- CS(=O)(=O)OCOS(C)(=O)=O — 660-fold higher, 44.5 µM

Tested on: NCI-H23 lung
Test: NCI tumour cell line growth inhibition, 48 h

Point of comparison: COc1cc2c(cc1OCCCCCN1C(=O)c3cccc4cccc(c34)C1=O)N=C[C@@H]1CCCN1C2=O, TGI 0.458 µM. Against it:
- CCCCN(CC)C(=O)C1=C(C)NC(C)=C(C(=O)N(CC)CCCC)C1 — higher, > 100 µM
- CCOC(=O)c1csc(NC(=O)CN2CCN(c3ccccc3)CC2)n1 — higher, > 100 µM
- [N-]=[N+]=CC(=O)OC1CCOCC1 — higher, > 100 µM
- CS(=O)(=O)OCOS(C)(=O)=O — higher, > 100 µM

Tested on: OVCAR-8 ovarian
Test: NCI tumour cell line growth inhibition, 48 h

Point of comparison: COc1cc2c(cc1OCCCCCN1C(=O)c3cccc4cccc(c34)C1=O)N=C[C@@H]1CCCN1C2=O, TGI 1.47 µM. Against it:
- CCCCN(CC)C(=O)C1=C(C)NC(C)=C(C(=O)N(CC)CCCC)C1 — higher, > 100 µM
- CCOC(=O)c1csc(NC(=O)CN2CCN(c3ccccc3)CC2)n1 — higher, > 100 µM
- CS(=O)(=O)OCOS(C)(=O)=O — higher, > 100 µM

Tested on: HCT-15 colon
Test: NCI tumour cell line growth inhibition, 48 h

Point of comparison: COc1cc2c(cc1OCCCCCN1C(=O)c3cccc4cccc(c34)C1=O)N=C[C@@H]1CCCN1C2=O, TGI 4.06 µM. Against it:
- CCCCN(CC)C(=O)C1=C(C)NC(C)=C(C(=O)N(CC)CCCC)C1 — higher, > 100 µM
- CCOC(=O)c1csc(NC(=O)CN2CCN(c3ccccc3)CC2)n1 — higher, > 100 µM
- [N-]=[N+]=CC(=O)OC1CCOCC1 — higher, > 100 µM
- CS(=O)(=O)OCOS(C)(=O)=O — higher, > 100 µM

Tested on: CAKI-1 renal
Test: NCI tumour cell line growth inhibition, 48 h

CCCCN(CC)C(=O)C1=C(C)NC(C)=C(C(=O)N(CC)CCCC)C1 and CCOC(=O)c1csc(NC(=O)CN2CCN(c3ccccc3)CC2)n1 cannot be ordered by TGI: > 100 µM for the first, > 100 µM for the second.

[N-]=[N+]=CC(=O)OC1CCOCC1 and CS(=O)(=O)OCOS(C)(=O)=O cannot be ordered by TGI: > 100 µM for the first, > 100 µM for the second.

Tested on: NCI-H226 lung
Test: NCI tumour cell line growth inhibition, 48 h

Point of comparison: COc1cc2c(cc1OCCCCCN1C(=O)c3cccc4cccc(c34)C1=O)N=C[C@@H]1CCCN1C2=O, TGI 0.574 µM. Against it:
- CCCCN(CC)C(=O)C1=C(C)NC(C)=C(C(=O)N(CC)CCCC)C1 — higher, > 100 µM
- CCOC(=O)c1csc(NC(=O)CN2CCN(c3ccccc3)CC2)n1 — higher, > 100 µM
- [N-]=[N+]=CC(=O)OC1CCOCC1 — higher, > 100 µM
- CS(=O)(=O)OCOS(C)(=O)=O — higher, > 100 µM
